Experimental data from patent US20240010684A1, “MASP INHIBITORY COMPOUNDS AND USES THEREOF” (BAYER AKTIENGESELLSCHAFT, priority 2020, published 2024).
pIC50: −log10 of the molar value. *1 amine or outer side, *2 acyl side, *3 side chain or, on linkers, in order; H or OH if unused. Where a SMILES comes first, the peptide text is derived from it. Bridges are numbered along the chain shown (N, C = ends). [ ]: non-standard residue; d: D form. Adipoyl = O=C(CCCCC(=O)[*:2])[*:1]; tBuAla = CC(C)(C)C[C@H](N)C(=O)O; Pen = CC(C)(S)[C@H](N)C(=O)O; Dap = NC[C@H](N)C(=O)O; Ahx = NCCCCCC(=O)O

How the values were obtained:
[1] = target: human MASP2 (Homo sapiens (Human), UniProt O00187); assay: Biochemical human MASP2 assay (FRET substrate); conditions: Average IC50; recombinant human MASP2; read-out: human MASP2 IC50
In short: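 IC50 came from % inhibition across compound concentrations, with fluorescence (ex 340 nm, em 490 nm) read after 60-120 min at 32 C. Substrate was a DABCYL FRET peptide, added as a 60 μM solution, cleaved by HEK293-expressed, Ni-NTA-purified mature recombinant human MASP2.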

[2] = target: human MASP1 (Homo sapiens (Human), UniProt P48740); assay: Biochemical human MASP1 assay (FRET substrate); conditions: Average IC50; recombinant human MASP1; read-out: human MASP1 IC50
In short: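 IC50 derived from % inhibition versus compound concentration, with fluorescence increase read at 320/420 nm after 60-120 min at 32 C. Enzyme: HEK293-secreted, His-tagged human MASP1 fragment 297-699 at 20 nM in HEPES pH 8,0 buffer with NaCl, CHAPS, glutathione; substrate ABZ-peptide-Lys(Dnp)-NH2 added as 20 μM solution.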

[3] = tested on: Human C3-DEPOSITION SERUM; assay: C3 deposition assay, human serum on mannan-coated plates; assay type: biochemical; conditions: Average IC50, read-out: Human C3-DEPOSITION SERUM IC50
In short: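 Plates coated overnight at 4° C with S. cerevisiae mannan (10 μg/mL, pH 9.6), blocked with 1% BSA in TBS 2 h at 37° C; washes in TBS/0.05% Tween 20/5 mM CaCl2. Antibodies diluted in wash buffer with 0.5% BSA. Colorimetric read-out at 450 nm.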

[4] = target: rat MASP2 (Rattus norvegicus (Rat), UniProt Q9JJS8); assay: Biochemical rat MASP2 assay (FRET substrate); conditions: Average IC50; recombinant rat MASP2; read-out: rat MASP2 IC50
Excerpt: The MASP1 or MASP2 expression vectors were transfected into the HEK293 (ATCC No. CRL-1573) cell line using Lipofectamine LTX® Reagent (Thermo-Fischer), as described by the manufacturer. […] The MASP1 and M[…] were purified from the conditioned media by affinity chromatography on Ni-NTA Superflow resin (Qiagen) as described by the manufacturer.

[5] = target: rat MASP1 (Rattus norvegicus (Rat), UniProt Q8CHN8); assay: Biochemical rat MASP1 assay (FRET substrate); conditions: Average IC50; recombinant rat MASP1; read-out: rat MASP1 IC50
Excerpt: A truncated cDNA sequence of rat MASP1encoding the fragment corresponding to the amino acids 302-704 with a C-terminal His Tag and N-terminal Ig-kappa secretion signal (SEQ ID No: 4) was subcloned into the mammalian expression vector pcDNA3.1 (Invitrogen).
The MASP1 or MASP2 expression vectors were transfected into the HEK293 (ATCC No. CRL-1573) cell line using Lipofectamine LTX® Reagent (Thermo-Fischer), as described by the manufacturer. The mature form of the recombinant rat MASP1 and MASP2 proteases were secreted into the culture medium. The MASP1 and MASP2 proteins were purified from the conditioned media by affinity chromatography on Ni-NTA Superflow resin (Qiagen) as described by the manufacturer.
4.2 Biochemical Rat MASP1 Assay.
Recombinant rat MASP1 enzyme produced in the HEK 293 cells was diluted in the reaction buffer (50 mM HEPES pH 8,0; 100 mM NaCl; 0,01% CHAPS; 0.5 mM Gluthathione) to the concentration of 4 nM and 25 μl was transferred into each single well of 384-well white microtiter plate (Greiner Bio One 781075). 1 μl of the inhibitor compound solution (dissolved in DMSO, at the corresponding concentration) or pure DMSO as a control was added to the same wells. The enzymatic reaction was initiated by addition of 25 μl of 40 μM solution of the FRET substrate Dabcyl-[…]-Glu(Edans)-NH2; (Dabcyl-4-((4-(dimethylamino)phenyl)azo)benzoic acid; Edans-5-[(2-Aminoethyl) amino]naphthalene-1-sulfonyl; custom synthesis by Jerini Peptide Technologies, Berlin) in the reaction buffer. The microtiter plate was incubated for 60-120 min at the temperature of 32 C. The increase of fluorescence intensity was measured in appropriate fluorescence plate reader (e.g. TECAN Ultra) using excitation wavelength of 340 nm and emission wavelength of 490 nm. IC50 values were calculated from percentage of inhibition of rat […] activity as a function of test compound concentration.

Sequence of rat MASP2 (Q9JJS8 other isoform, or with tags, fused parts or gaps): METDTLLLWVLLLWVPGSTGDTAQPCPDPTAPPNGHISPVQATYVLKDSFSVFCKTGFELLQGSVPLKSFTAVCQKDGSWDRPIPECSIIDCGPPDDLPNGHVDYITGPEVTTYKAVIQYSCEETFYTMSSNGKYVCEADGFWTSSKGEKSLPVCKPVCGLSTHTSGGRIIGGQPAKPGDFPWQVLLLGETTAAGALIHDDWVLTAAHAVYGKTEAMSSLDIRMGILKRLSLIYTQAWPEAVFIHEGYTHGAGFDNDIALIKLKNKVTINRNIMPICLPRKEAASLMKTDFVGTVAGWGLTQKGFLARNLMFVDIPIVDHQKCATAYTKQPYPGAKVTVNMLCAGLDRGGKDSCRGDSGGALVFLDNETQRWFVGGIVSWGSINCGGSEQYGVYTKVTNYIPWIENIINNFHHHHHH
Sequence of human MASP2 (O00187 other isoform, or with tags, fused parts or gaps): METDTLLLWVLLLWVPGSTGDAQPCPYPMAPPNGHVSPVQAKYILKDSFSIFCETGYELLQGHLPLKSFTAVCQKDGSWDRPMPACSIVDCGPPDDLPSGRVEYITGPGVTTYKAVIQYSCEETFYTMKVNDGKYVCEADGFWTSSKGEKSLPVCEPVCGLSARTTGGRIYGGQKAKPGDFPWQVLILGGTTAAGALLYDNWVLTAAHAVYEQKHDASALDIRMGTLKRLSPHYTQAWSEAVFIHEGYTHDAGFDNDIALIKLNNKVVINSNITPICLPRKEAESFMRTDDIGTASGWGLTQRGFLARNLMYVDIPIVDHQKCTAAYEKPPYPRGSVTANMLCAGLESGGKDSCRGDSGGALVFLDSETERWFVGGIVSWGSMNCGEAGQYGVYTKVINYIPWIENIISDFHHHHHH
Sequence of human MASP1 (P48740 other isoform, or with tags, fused parts or gaps): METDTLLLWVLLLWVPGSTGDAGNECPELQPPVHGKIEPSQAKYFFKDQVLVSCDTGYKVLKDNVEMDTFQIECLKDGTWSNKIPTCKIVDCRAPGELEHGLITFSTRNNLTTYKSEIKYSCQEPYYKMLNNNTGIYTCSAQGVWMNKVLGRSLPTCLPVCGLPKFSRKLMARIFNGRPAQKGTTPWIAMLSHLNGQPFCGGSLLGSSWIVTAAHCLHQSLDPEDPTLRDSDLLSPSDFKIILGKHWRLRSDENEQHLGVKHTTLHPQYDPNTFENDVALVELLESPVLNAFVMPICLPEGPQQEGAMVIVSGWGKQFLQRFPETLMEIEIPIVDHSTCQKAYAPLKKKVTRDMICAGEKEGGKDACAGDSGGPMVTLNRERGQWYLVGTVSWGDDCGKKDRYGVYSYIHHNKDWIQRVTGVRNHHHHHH
Sequence of rat MASP1 (Q8CHN8 other isoform, or with tags, fused parts or gaps): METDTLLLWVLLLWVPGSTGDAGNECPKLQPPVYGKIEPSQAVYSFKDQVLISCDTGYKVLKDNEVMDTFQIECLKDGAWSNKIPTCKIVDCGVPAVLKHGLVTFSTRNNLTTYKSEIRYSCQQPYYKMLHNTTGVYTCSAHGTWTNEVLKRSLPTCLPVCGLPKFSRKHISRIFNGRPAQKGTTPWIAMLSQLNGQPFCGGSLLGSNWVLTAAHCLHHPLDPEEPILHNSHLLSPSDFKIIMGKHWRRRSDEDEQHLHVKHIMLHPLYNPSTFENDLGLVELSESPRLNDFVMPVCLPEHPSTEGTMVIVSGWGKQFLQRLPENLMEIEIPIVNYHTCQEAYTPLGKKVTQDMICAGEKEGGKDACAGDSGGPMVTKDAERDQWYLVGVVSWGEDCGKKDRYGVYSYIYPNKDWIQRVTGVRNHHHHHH

SMILES	pIC50 [1]	pIC50 [2]	pIC50 [3]	pIC50 [4]	pIC50 [5]
CC[C@H](C)[C@@H]1NC(=O)[C@H](C)NC(=O)CCCCCNC(=O)[C@@H]2CCCN2C(=O)[C@H]([C@@H](C)CC)NC(=O)[C@H]2NC(=O)[C@H]([C@@H](C)CC)NC(=O)[C@@H]3CCCN3C(=O)[C@@H]3CCCN3C(=O)[C@H](CC(C)(C)C)NC(=O)[C@H](CO)NC(=O)[C@H](CCCNC(=N)N)NC(=O)[C@H](CO)NC(=O)[C@H](CSSC2(C)C)NC1=O [Example 53, N-{3-[(6S,9S,12S,15S,18R,21S,24S,33aS,39S,42R,45S,47aS,52aS)-21,39,45-tri[(2S)-butan-2-yl]-6-(2,2-dimethylpropyl)-9,15-bis(hydroxymethyl)-24,53,53-trimethyl-5,8,11,14,17,20,23,26,33,38,41,44,47,52-tetradecaoxopentacontahydro-1H,5H-18,42-(methanodithiomethano)tripyrrolo[2,1-c:2′,1′-o:2″,1″-r][1,4,7,10,13,16,19,22,25,28,31,34,37,40]tetradecaazacyclohexatetracontin-12-yl]propyl}guanidine] (cyclo(AICSRS[tBuAla]PPI[Pen]IP[Ahx]); disulfide 3-11)	7.08	8.17	7.35	7.72	7.02
CC[C@H](C)[C@@H]1NC(=O)[C@@H]2CCCN2C(=O)[C@@H]2CCCN2C(=O)[C@H](CC(C)(C)C)NC(=O)[C@H](CO)NC(=O)[C@H](CCCNC(=N)N)NC(=O)[C@H](CO)NC(=O)[C@@H]2CSSC(C)(C)[C@H](NC1=O)C(=O)N[C@@H]([C@@H](C)CC)C(=O)N1CCC[C@H]1C(=O)N1CCC[C@H]1C(=O)N[C@@H]([C@@H](C)CC)C(=O)N2 [Example 58, N-{3-[(6S,9S,12S,15S,18R,21S,23aS,28aS,34S,37R,40S,42aS,47aS)-21,34,40-tri[(2S)-butan-2-yl]-6-(2,2-dimethylpropyl)-9,15-bis(hydroxymethyl)-48,48-dimethyl-5,8,11,14,17,20,23,28,33,36,39,42,47-tridecaoxotetratetracontahydro-1H,5H,28H-18,37-(methanodithiomethano)tetrapyrrolo[1,2-a:1′,2′-d:1″,2″-p:1′″,2′″-s][1,4,7,10,13,16,19,22,25,28,31,34,37]tridecaazacyclononatriacontin-12-yl]propyl}guanidine] (cyclo(CSRS[tBuAla]PPI[Pen]IPPI); disulfide 1-9)	6.19	8.05	7.09	7.34	6.96
CC[C@H](C)[C@@H]1NC(=O)[C@H](CN)NC(=O)[C@H](CN)NC(=O)[C@@H]2CCCN2C(=O)[C@H]([C@@H](C)CC)NC(=O)[C@H]2NC(=O)[C@H]([C@@H](C)CC)NC(=O)[C@@H]3C[C@@H]4CCCC[C@@H]4N3C(=O)[C@@H]3CCCN3C(=O)[C@H](CC(C)C)NC(=O)[C@H](CO)NC(=O)[C@H](CCCNC(=N)N)NC(=O)[C@H](CO)NC(=O)[C@H](CSSC2(C)C)NC1=O [Example 89]	7.04	8.24	7.73	7.19	6.54
CC[C@H](C)[C@@H]1NC(=O)CNC(=O)CNC(=O)[C@H](C)NC(=O)[C@@H](CC(=O)O)NC(=O)[C@@H]2CCCN2C(=O)[C@H]([C@@H](C)CC)NC(=O)[C@H]2NC(=O)[C@H]([C@@H](C)CC)NC(=O)[C@@H]3CCCN3C(=O)[C@@H]3CCCN3C(=O)[C@H](CC(C)(C)C)NC(=O)[C@H](CO)NC(=O)[C@H](CCCNC(=N)N)NC(=O)[C@H](CO)NC(=O)[C@H](CSSC2(C)C)NC1=O [Example 39] (cyclo(AGGICSRS[tBuAla]PPI[Pen]IP[dD]); disulfide 5-13)	7.12	8.22	7.47	8.10	7.36
CC[C@H](C)[C@@H]1NC(=O)CN(C)C(=O)CCCCCNC(=O)[C@@H]2CCCN2C(=O)[C@H]([C@@H](C)CC)NC(=O)[C@H]2NC(=O)[C@H]([C@@H](C)CC)NC(=O)[C@@H]3CCCN3C(=O)[C@@H]3CCCN3C(=O)[C@H](CC(C)(C)C)NC(=O)[C@H](CO)NC(=O)[C@H](CCCNC(=N)N)NC(=O)[C@H](CO)NC(=O)[C@H](CSSC2(C)C)NC1=O [Example 54, N-{3-[(6S,9S,12S,15S,18R,21S,33aS,39S,42R,45S,47aS,52aS)-21,39,45-tri[(2S)-butan-2-yl]-6-(2,2-dimethylpropyl)-9,15-bis(hydroxymethyl)-25,53,53-trimethyl-5,8,11,14,17,20,23,26,33,38,41,44,47,52-tetradecaoxopentacontahydro-1H,5H-18,42-(methanodithiomethano)tripyrrolo[2,1-c:2′,1′-o:2″,1″-r][1,4,7,10,13,16,19,22,25,28,31,34,37,40]tetradecaazacyclohexatetracontin-12-yl]propyl}guanidine]	7.48	8.07	7.40	7.74	6.74

Now those with a higher pIC50 [1], led by results:

pIC50 [1]	pIC50 [2]	pIC50 [3]	pIC50 [4]	pIC50 [5]	SMILES
7.77	8.39	8.48	7.62	7.20	CC[C@H](C)[C@@H]1NC(=O)CCCNC(=O)[C@H](CC(=O)O)NC(=O)[C@@H]2CCCN2C(=O)[C@H]([C@@H](C)CC)NC(=O)[C@H]2NC(=O)[C@H]([C@@H](C)CC)NC(=O)[C@@H]3CCCN3C(=O)[C@@H]3CCCN3C(=O)[C@H](CC(C)(C)C)NC(=O)[C@H](CO)NC(=O)[C@H](CCCNC(=N)N)NC(=O)[C@H](CO)NC(=O)[C@H](CSSC2(C)C)NC1=O [Example 35]
8.03	8.10	7.63	7.94	7.10	CC[C@H](C)[C@@H]1NC(=O)CCCCCNC(=O)[C@H]([C@@H](C)CC)NC(=O)[C@H]2NC(=O)[C@H]([C@@H](C)CC)NC(=O)[C@@H]3CCCN3C(=O)[C@@H]3CCCN3C(=O)[C@H](CC(C)(C)C)NC(=O)[C@H](CO)NC(=O)[C@H](CCCNC(=N)N)NC(=O)[C@H](CO)NC(=O)[C@H](CSSC2(C)C)NC1=O [Example 52, N-{3-[(5aS,11S,14S,17S,20S,23R,26S,36S,39R,42S,44aS)-26,36,42-tri[(2S)-butan-2-yl]-11-(2,2-dimethylpropyl)-14,20-bis(hydroxymethyl)-45,45-dimethyl-5,10,13,16,19,22,25,28,35,38,41,44-dodecaoxodotetracontahydro-1H,5H-23,39-(methanodithiomethano)dipyrrolo[2,1-1:2′,1′-o][1,4,7,10,13,16,19,22,25,28,31,34]dodecaazacyclotetracontin-17-yl]propyl}guanidine] (cyclo([Ahx]ICSRS[tBuAla]PPI[Pen]I); disulfide 3-11)
8.27	7.24	7.69	7.89	6.48	CC[C@H](C)[C@@H]1NC(=O)CCCCC(=O)NC[C@@H](C(N)=O)NC(=O)[C@H](CC(=O)O)NC(=O)[C@@H]2CCCN2C(=O)[C@H]([C@@H](C)CC)NC(=O)[C@H]2NC(=O)[C@H]([C@@H](C)CC)NC(=O)[C@@H]3CCCN3C(=O)[C@@H]3CCCN3C(=O)[C@H](CC(C)(C)C)NC(=O)[C@H](CO)NC(=O)[C@H](CCCNC(=N)N)NC(=O)[C@H](CO)NC(=O)[C@H](CSSC2(C)C)NC1=O [Example 60] (ICSRS[tBuAla]PPI[Pen]IPD[Dap]-NH2; disulfide 2-10; linker N-14 via Adipoyl)
